From US20250163061A1 (Bala Therapeutics, Inc., priority 2021, published 2025)

Key:
recombinant MEN1 protein = recombinant MEN1 protein (Homo sapiens (Human), UniProt O00255); assay: Primary fluorescence polarization assay of MEN1 activity inhibition (MEN1 / MLL4-43 peptide interaction); assay type: binding; settings: MEN1 10 nM, fluorescein-labeled MLL4-43 peptide 0.5 nM
Experimental: Compound activity was determined using recombinant MEN1 protein (Creativebiomart, Cat #MEN1-35H) and a custom fluorescein-labeled MLL4-43 peptide (Eton Bioscience Inc.). Interaction between MEN1 and MLL4-43 in the presence of compounds was determined by fluorescence polarization assay using a Microplate Reader ClarioStar Plus. The reaction was carried out in assay buffer (50 mM TRIS-HCl pH 7.4-7.6, 50 mM NaCl, 1 mM DTT, 0.1 mg/ml BSA). The compounds were dispensed on a 384 well Diamond Well Plate (Axigen, Cat #P-384-120SQ-C-S) using the Biomek FX liquid handling system at 100× solutions of compounds in DMSO. 2×MEN1 mix (final concentration of MEN1 10 nM) was prepared in Assay buffer and 10 μl of mixture per well was added into 384 w white Reaction plate with NBS (Corning, Cat #4513). 10 μl of Assay buffer w/o MEN1 was used for negative control. Plates were centrifuged for 1 min at 100 g. Next step the Compounds were added to Reaction plate using Biomek station via following steps: 3 μl of 100× compounds (in DMSO) were mixed thoroughly with 27 μl Assay Buffer, then 2 μl of this mixture was added to Reaction plate with 10 μl of MEN1 mix. Plates were centrifuged for 1 min at 100 g and incubated for 20 min at room temperature. Next 8 μL of MLL4-43 peptide per well was added to final concentration of MLL 0.5 nM. Plates were incubated for 1 hour at room temperature. Then fluorescence polarization was measured using Microplate Reader.

[1] = HEK293 cellular growth inhibition assay (CellTiter-Glo); assay type: cell-based; settings: human, HEK293 cells, 7 days of incubation
Experimental: (§1) HEK293 (Institute of Cytology Russian Academy of Science), MV4-11 (ATCC, CRL-9591), MOLM-13 (AcceGen, ABC-TC517S) were seeded at a density of 500 cells per well (HEK293) and 2000 cells per well (MV4-11, MOLM-13) in a 384-well clear bottom plate (Greiner Cat #781090) in 45 μl total volume of DMEM (PanEco, Cat #C420, Russia) or RPMI (PanEco, Cat #C330, Russia) with 10% FBS (HyClone Cat #SV30160.03). HEK293 were allowed to adhere overnight at 37° C., 5% CO2. 500× compounds solutions in DMSO (Sigma Cat #D2650) were prepared into Cmpnds plate (Diamond Well Plate, Axigen, Cat #P-384-120SQ-C-S) and DMSO only control was included. 1 μl of 500× compounds (Cmpnds plate) was added to 49 μl of culture medium into Dilution plate (Diamond Well Plate, Axigen, Cat #P-384-120SQ-C-S), mixed and then 5 μl of 10× compounds solutions were transferred to cells followed by centrifugation at 100 g for 1 min. Final DMSO concentration was 0.2%. After 3 days of incubation, 10 μl of 1× compounds were added to cells. After 7 days of incubation, 12 μl of CellTiter-Glo (Promega, CAT #G7572) were added to the cells, plate was centrifuged at 100 g for 1 min and luminescence signal was measured using Microplate Reader (CLARIOStar).

MV4-11 = MV4-11 cellular growth inhibition assay (CellTiter-Glo); assay type: cell-based; settings: Homo sapiens, 168 h, MV4-11 cells, 7 days of incubation
Experimental: as §1

MOLM-13 = MOLM-13 cellular growth inhibition assay (CellTiter-Glo); assay type: cell-based; settings: Homo sapiens, 168 h, MOLM-13 cells, 7 days of incubation
Experimental: as §1

Chain of recombinant MEN1 protein (O00255 whole entry): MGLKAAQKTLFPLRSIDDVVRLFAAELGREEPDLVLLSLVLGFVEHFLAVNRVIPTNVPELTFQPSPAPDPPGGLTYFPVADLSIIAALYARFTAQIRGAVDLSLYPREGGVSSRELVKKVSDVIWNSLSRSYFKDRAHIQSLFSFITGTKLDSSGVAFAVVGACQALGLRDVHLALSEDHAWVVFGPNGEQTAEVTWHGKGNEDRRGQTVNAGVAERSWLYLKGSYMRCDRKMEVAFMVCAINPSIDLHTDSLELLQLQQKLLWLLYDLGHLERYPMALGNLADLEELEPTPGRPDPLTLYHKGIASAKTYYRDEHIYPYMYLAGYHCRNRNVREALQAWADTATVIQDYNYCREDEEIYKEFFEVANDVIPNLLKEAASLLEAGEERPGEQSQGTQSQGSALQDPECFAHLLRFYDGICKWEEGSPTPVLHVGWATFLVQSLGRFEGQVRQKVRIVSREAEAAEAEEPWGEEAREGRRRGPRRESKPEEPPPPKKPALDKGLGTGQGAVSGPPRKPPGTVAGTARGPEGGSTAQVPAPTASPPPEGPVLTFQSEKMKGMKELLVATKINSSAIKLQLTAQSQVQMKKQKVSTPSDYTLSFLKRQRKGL

Row | Compound | EC50 (recombinant MEN1 protein) [nM] | CC50 at 7 days [1] [µM] | CC50 (MV4-11) [nM] | CC50 (MOLM-13) [nM]
1 | Cc1c(CN2CCC3(CC2)CN(c2ncnc4ccc(CC(F)(F)F)cc24)C3)ccc2c1cc(C#N)n2CC1CN(S(C)(=O)=O)CCO1 (centres unmarked) [Compound 9] | 75 to 500 | – | – | –
2 | Cc1c(CN2CCC3(CC2)CN(c2ncnc4ccc(CC(F)(F)F)cc24)C3)ccc2c1cc(C#N)n2CC1CN(CC(C)C)C(=O)CO1 (centres unmarked) [Compound 31, 1-[(4-Isobutyl-5-oxomorpholin-2-yl)methyl]-4-methyl-5-({2-[6-(2,2,2-trifluoroethyl)quinazolin-4-yl]-2,7-diazaspiro[3.5]non-7-yl}methyl)-1H-indole-2-carbonitrile] | 75 to 500 | – | – | –
3 | CCS(=O)(=O)N1CCCN(C(C)Cn2c(C#N)cc3c(C)c(CN4CCC5(CC4)CN(c4ncnc6ccc(CC(F)(F)F)cc46)C5)ccc32)CC1 (centres unmarked) [Compound 53, 1-[2-(4-Ethylsulfonyl-1,4-diazepan-1-yl)propyl]-4-methyl-5-[[2-[6-(2,2,2-trifluoroethyl)quinazolin-4-yl]-2,7-diazaspiro[3.5]nonan-7-yl]methyl]indole-2-carbonitrile] | ≤ 75 | 5 to 10 | ≤ 100 | 100 to 500
4 | Cc1c(CN2CCC3(CC2)CN(c2cnnc4ccc(CC(F)(F)F)cc24)C3)ccc2c1cc(C#N)n2CC(C)N1CCN(S(C)(=O)=O)CC1 (centres unmarked) [Compound 80, 4-Methyl-1-[2-(4-methylsulfonylpiperazin-1-yl)propyl]-5-[[2-[6-(2,2,2-trifluoroethyl)cinnolin-4-yl]-2,7-diazaspiro[3.5]nonan-7-yl]methyl]indole-2-carbonitrile] | ≤ 75 | 5 to 10 | 100 to 500 | 1000 to 5000
5 | Cc1c(CN2CCC3(CC2)CN(c2ncnc4ccc(CC(F)(F)F)cc24)C3)ccc2c1cc(C#N)n2CC1CNC(=O)N1 (centres unmarked) [Compound 6, 4-Methyl-1-[(2-oxoimidazolidin-4-yl)methyl]-5-({2-[6-(2,2,2-trifluoroethyl)quinazolin-4-yl]-2,7-diazaspiro[3.5]non-7-yl}methyl)-1H-indole-2-carbonitrile] | 1000 to 5000 | – | – | –
6 | Cc1c(CN2CCC3(CC2)CN(c2ncnc4ccc(CC(F)(F)F)cc24)C3)ccc2c1cc(C#N)n2CC1CN(C)C(=O)CN1 (centres unmarked) [Compound 46, 4-methyl-1-[(4-methyl-5-oxo-piperazin-2-yl)methyl]-5-[[2-[6-(2,2,2-trifluoroethyl)quinazolin-4-yl]-2,7-diazaspiro[3.5]nonan-7-yl]methyl]indole-2-carbonitrile] | 1000 to 5000 | – | – | –
7 | Cc1c(CN2CCC3(CC2)CN(c2ncnc4ccc(CC(F)(F)F)cc24)C3)ccc2c1cc(C#N)n2C[C@@H](C)N1CCN(S(C)(=O)=O)[C@@H](C)C1 [Compound 27, 4-methyl-1-[(2R)-2-[(3S)-3-methyl-4-methylsulfonyl-piperazin-1-yl]propyl]-5-[[2-[6-(2,2,2-trifluoroethyl)quinazolin-4-yl]-2,7-diazaspiro[3.5]nonan-7-yl]methyl]indole-2-carbonitrile] | – | 5 to 10 | ≤ 100 | 100 to 500
8 | Cc1c(CN2CCC3(CC2)CN(c2ncnc4ccc(CC(F)(F)F)cc24)C3)ccc2c1cc(C#N)n2CC1CNC(=O)C1 (centres unmarked) [Compound 51, 4-Methyl-1-[(5-oxopyrrolidin-3-yl)methyl]-5-({2-[6-(2,2,2-trifluoroethyl)quinazolin-4-yl]-2,7-diazaspiro[3.5]non-7-yl}methyl)-1H-indole-2-carbonitrile] | – | 2 to 5 | 100 to 500 | 1000 to 5000
9 | Cc1c(CN2CCC3(CC2)CN(c2ncnc4ccc(CC(F)(F)F)cc24)C3)ccc2c1cc(C#N)n2CCN1CCOCC1 [Compound 97, 4-Methyl-1-(2-morpholin-4-ylethyl)-5-({2-[6-(2,2,2-trifluoroethyl)quinazolin-4-yl]-2,7-diazaspiro[3.5]non-7-yl}methyl)-1H-indole-2-carbonitrile] | – | 2 to 5 | 500 to 1000 | 1000 to 5000
10 | Cc1c(CN2CCC3(CC2)CN(c2ncnc4ccc(CC(F)(F)F)cc24)C3)ccc2c1cc(C#N)n2CC1CCNC(=O)C1 (centres unmarked) [Compound 22, 4-Methyl-1-[(2-oxopiperidin-4-yl)methyl]-5-({2-[6-(2,2,2-trifluoroethyl)quinazolin-4-yl]-2,7-diazaspiro[3.5]non-7-yl}methyl)-1H-indole-2-carbonitrile] | – | 2 to 5 | 100 to 500 | 500 to 1000
11 | C=CC(=O)N1CCN(CCCCn2c(C#N)cc3c(C)c(CN4CCC5(CC4)CN(c4ncnc6ccc(CC(F)(F)F)cc46)C5)ccc32)CC1 [Compound 65, 1-[4-(4-Acryloylpiperazin-1-yl)butyl]-4-methyl-5-({2-[6-(2,2,2-trifluoroethyl)quinazolin-4-yl]-2,7-diazaspiro[3.5]non-7-yl}methyl)-1H-indole-2-carbonitrile] | – | ≤ 2 | 100 to 500 | 1000 to 5000
12 | Cc1c(CN2CCC3(CC2)CN(c2ncnc4ccc(CC(F)(F)F)cc24)C3)ccc2c1cc(C#N)n2C[C@@H]1CCC(=O)N[C@H]1c1ccccc1 [Compound 100, 4-Methyl-1-{[(2R,3S)-6-oxo-2-phenylpiperidin-3-yl]methyl}-5-({2-[6-(2,2,2-trifluoroethyl)quinazolin-4-yl]-2,7-diazaspiro[3.5]non-7-yl}methyl)-1H-indole-2-carbonitrile] | 75 to 500 | – | – | –
13 | COc1cc2c(cc1CN1CCC3(CC1)CN(c1ncnc4ccc(CC(F)(F)F)cc14)C3)cc(C#N)n2CC(C)N1CCN(S(C)(=O)=O)CC1 (centres unmarked) [Compound 20, 6-Methoxy-1-{2-[4-(methylsulfonyl)piperazin-1-yl]propyl}-5-({2-[6-(2,2,2-trifluoroethyl)quinazolin-4-yl]-2,7-diazaspiro[3.5]non-7-yl}methyl)-1H-indole-2-carbonitrile] | – | 2 to 5 | 100 to 500 | 1000 to 5000
14 | Cc1c(CN2CCC3(CC2)CN(c2ncnc4ccc(CC(F)(F)F)c(F)c24)C3)ccc2c1cc(C#N)n2CC1CNC(=O)CO1 (centres unmarked) [Compound 12, 5-[[2-[5-Fluoro-6-(2,2,2-trifluoroethyl)quinazolin-4-yl]-2,7-diazaspiro[3.5]nonan-7-yl]methyl]-4-methyl-1-[(5-oxomorpholin-2-yl)methyl]indole-2-carbonitrile] | – | ≤ 2 | 100 to 500 | 500 to 1000
15 | Cc1c(CN2CCC3(CC2)CN(c2ncnc4ccc(CC(F)(F)F)cc24)C3)ccc2c1cc(C#N)n2Cc1ccc(=O)[nH]c1 [Compound 14, 4-Methyl-1-[(6-oxo-1,6-dihydropyridin-3-yl)methyl]-5-({2-[6-(2,2,2-trifluoroethyl)quinazolin-4-yl]-2,7-diazaspiro[3.5]non-7-yl}methyl)-1H-indole-2-carbonitrile] | – | ≤ 2 | ≤ 100 | ≤ 100
16 | CCS(=O)(=O)N[C@H]1CC[C@H](Cn2c(C#N)cc3c(C)c(CN4CCC5(CC4)CN(c4ncnc6ccc(CC(F)(F)F)cc46)C5)ccc32)CC1 [Compound 41] | 75 to 500 | – | – | –
